Data from BigSolDB 2.1.

CC1(C)O[C@H]2CC(=O)OC[C@]23[C@H]2CC[C@@]4(C)[C@H](c5ccoc5)OC(=O)[C@H]5O[C@]54[C@]2(C)C(=O)C[C@@H]13
solubility (mole fraction)
Settings | 283.2 K | 288.2 K | 293.2 K | 298.2 K | 303.2 K | 308.2 K | 313.2 K | 318.2 K | 323.2 K
in THF | 0.00242 | 0.00257 | 0.0028 | 0.00309 | 0.00327 | 0.0035 | 0.00408 | 0.00458 | 0.00486
in acetonitrile | 0.00272 | 0.00314 | 0.00349 | 0.00385 | 0.00454 | 0.00523 | 0.00628 | 0.00739 | 0.00857
in chloroform | 0.00425 | 0.00433 | 0.00447 | 0.00458 | 0.00479 | 0.00512 | 0.00531 | 0.0057 | 0.00599
in ethanol | 2.65e-05 | 2.93e-05 | 3.05e-05 | 3.53e-05 | 4.27e-05 | 5.48e-05 | 6.71e-05 | 8.49e-05 | 0.000101
in ethyl acetate | 0.000746 | 0.000761 | 0.000801 | 0.00085 | 0.00094 | 0.000979 | 0.00101 | 0.00119 | 0.00128
in isopropanol | 1.08e-05 | 1.25e-05 | 1.56e-05 | 1.79e-05 | 1.87e-05 | 2.25e-05 | 3.03e-05 | 3.47e-05 | 4.52e-05
in n-butanol | 1.53e-05 | 1.94e-05 | 2.01e-05 | 2.64e-05 | 2.91e-05 | 3.54e-05 | 4.23e-05 | 5.62e-05 | 7.25e-05
in n-butyl acetate | 0.000323 | 0.000349 | 0.000375 | 0.000413 | 0.000484 | 0.00053 | 0.000616 | 0.000646 | 0.00068
